Consider three compounds from PMC4836696 (PLoS ONE, 2016).

Entries after “also recorded” stand apart in the source; their conditions may differ.

For series [1], the system named is subjects with T2D taking liraglutide. Nature of the series: Clinical study Part B: pharmacodynamics (weight, glucose, HbA1c). The class given is in vivo, human. The note with it: Part B: liraglutide alone titrated to 1.8 mg/day, mean ± SD. The text has this:
In all three Parts, to reduce the risk of gastrointestinal adverse events subjects started by taking 15 g of GSK457 daily, in 2 divided doses, and were up−titrated to 30g daily (Day 4) and then to a maximum dose of 40 g daily at Day 7. Subjects unable to tolerate doses of 30 g or 40 g were permitted to reduce their dose to tolerated levels, with a minimum tolerated dose of 15 g required to remain in the study. A unit dose of 5 g of GSK457 consisted of three capsules of oleic acid and a separate sachet of powder for each of the three powder compounds. […]
In Parts B and C, there were additional clinic visits on Days 7, 14, and 28 for safety evaluations, potential modification of dose (Days 7 and 14), and dispensing of study medications. Subjects monitored their capillary blood glucose levels twice a day using a wireless-enabled glucometer and daily weights were monitored using a wireless enabled weighing instrument (see S3 Materials and Methods for more information). […]
Venous blood samples were collected for PD and PK analysis in K^+ EDTA tubes and rapidly placed on ice until centrifuged at 4°C for 10 minutes. Plasma was stored at -70°C until analyzed. Samples for clinical chemistry and hematology were measured by the local certified laboratory. Plasma samples were analyzed for glucose, insulin and leptin by BioAgilytix Labs (Durham, NC, USA). […]

The test system is the same in series [2]. Put plainly: Clinical study Part B: safety and tolerability. The class given is in vivo, human. The text has this: A unit dose of 5 g of GSK457 consisted of three capsules of oleic acid and a separate sachet of powder for each of the three powder compounds. The powders were mixed by the subject into 12 oz of flavored (Mio™ pomegranate/berry flavoring) water in a shaker bottle and consumed just prior to breakfast and dinner. The capsules could be taken with this drink or separately with water. The matching placebo consisted of starch and microcrystalline cellulose in identical sachets and capsules.

A short description of series [3]: Clinical study Part B: plasma liraglutide pharmacokinetics.
Series [4] concerns subjects with T2D taking metformin. Put plainly: Clinical study Part C: pharmacodynamics (weight, glucose, HbA1c). In kind it is in vivo, human. The note with it: Part C: usual metformin alone, mean ± SE. An excerpt: In all three Parts, to reduce the risk of gastrointestinal adverse events subjects started by taking 15 g of GSK457 daily, in 2 divided doses, and were up-titrated to 30g daily (Day 4) and then to a maximum dose of 40 g daily at Day 7. Subjects unable to tolerate doses of 30 g or 40 g were permitted to reduce their dose to tolerated levels, with a minimum tolerated dose of 15 g required to remain in the study. A unit dose of 5 g of GSK457 consisted of three capsules of oleic acid and a separate sachet of powder for each of the three powder compounds. […] Subjects monitored their capillary blood glucose levels twice a day using a wireless-enabled glucometer and daily weights were monitored using a wireless enabled weighing instrument (see S3 Materials and Methods for more information). […] Plasma was stored at -70°C until analyzed. Samples for clinical chemistry and hematology were measured by the local certified laboratory. Plasma samples were analyzed for glucose, insulin and leptin by BioAgilytix Labs (Durham, NC, USA). Glucose was measured using a Glucose 2300 STAT Plus Glucose Analyzer with the glucose/lactate standard, catalog number 2747 (Yellow Springs Instrument Co, OH, USA). […] An estimation approach was used where point estimates for treatment differences and corresponding confidence intervals were determined. […]

Series [5] in a line: Clinical study Part C: plasma metformin pharmacokinetics. In kind it is in vivo, human. Conditions: Part C: metformin taken 1 hour before GSK457; comparative plot, no statistics. The protocol: All samples were shipped frozen on dry ice and stored at approximately -20 °C until analysed. […] The eluate was then further diluted with 1.00 mL of 2:98 formic acid / acetonitrile vol/vol, prior to being analyzed by HPLC with MS/MS detection.

For series [6], the system named is patients. The note with it: cited from earlier work.
For series [7] the following is noted: protocol risk table; cited from earlier work.
Series [8] is described as follows: Clinical study Part A: plasma metformin pharmacokinetics. The note with it: for metformin Cmax / metformin AUC(0−10): geometric mean (CV%); for metformin Tmax: median (range).
In series [9] the test system is DIO C57BL/6NTac mice. Put plainly: Chronic 28-day weight loss study in DIO mice. In kind it is in vivo, mouse.
Setting [10] is: subjects later randomized to GSK457.
The mark [11] stands for this setting: subjects later randomized to placebo.
Setting [12] is: Part B, GSK457 group, Day 42, median (range), n=11.
The mark [13] stands for this setting: Part B, with GSK457, data from 1 outlier excluded.
The mark [14] stands for this setting: overdose, ref GLUCOPHAGE (Metformin) Package Insert.
[15] abbreviates: Part A healthy subjects, co-administration with GSK457.
Where [16] appears, read: Part A, single 500 mg IR metformin, GSK457 group, Day 1 (metformin alone), n=11.
Where [17] appears, read: Part A, single 500 mg IR metformin, GSK457 group, Day 42 (with GSK457), n=10.
The mark [18] stands for this setting: Part A, single 500 mg IR metformin, Placebo group, Day 1, n=4.
Where [19] appears, read: Part A, single 500 mg IR metformin, Placebo group, Day 42, n=4.

On to `CCCCCCCCCCCCCCCC(=O)N[C@@H](CCC(=O)NCCCC[C@H](NC(=O)[C@H](C)NC(=O)[C@H](C)NC(=O)[C@H](CCC(N)=O)NC(=O)CNC(=O)[C@H](CCC(=O)O)NC(=O)[C@H](CC(C)C)NC(=O)[C@H](Cc1ccc(O)cc1)NC(=O)[C@H](CO)NC(=O)[C@H](CO)NC(=O)[C@@H](NC(=O)[C@H](CC(=O)O)NC(=O)[C@H](CO)NC(=O)[C@@H](NC(=O)[C@H](Cc1ccccc1)NC(=O)[C@@H](NC(=O)CNC(=O)[C@H](CCC(=O)O)NC(=O)[C@H](C)NC(=O)[C@@H](N)Cc1cnc[nH]1)[C@@H](C)O)[C@@H](C)O)C(C)C)C(=O)N[C@@H](CCC(=O)O)C(=O)N[C@@H](Cc1ccccc1)C(=O)N[C@H](C(=O)N[C@@H](C)C(=O)N[C@@H](Cc1c[nH]c2ccccc12)C(=O)N[C@@H](CC(C)C)C(=O)N[C@H](C(=O)N[C@@H](CCCNC(=N)N)C(=O)NCC(=O)N[C@@H](CCCNC(=N)N)C(=O)NCC(=O)O)C(C)C)[C@@H](C)CC)C(=O)O` [liraglutide], for which the results for the “change in mean body weight during the 12-week liraglutide Stabilization phase” value in series [1] (setting [10]) and in series [1] (setting [11]) were -1.29 kg and -2.55 kg, respectively. Besides, in [2] (Part B: liraglutide alone, 12 weeks, titrated to 1.8 mg/day), the “most common drug-related adverse events during the Stabilization period” value was “nausea, diarrhea, decreased appetite, and headache”. In addition, the circulating lipase/amylase concentrations result in series [2] (Part B: while subjects were on liraglutide, no symptoms or signs of pancreatitis, no clear differentiation GSK457 vs placebo) is given as “Asymptomatic elevations”. For the same compound, the “effect of co-administration with GSK457 on liraglutide plasma exposures” value in series [3] (Part B T2D patients, all data) is “did not affect liraglutide plasma exposures; also recorded: no effect”. Also, the “liraglutide AUC(0−t)” value in series [3] (Part B, GSK457 group, Day 42 (with GSK457), geometric mean (CV%), n=11) is on record as 1266 (79.4) ng.h/mL. Besides, the “liraglutide Tlast” value is on record as 24.02 (23.8−24.3) h in series [3] (setting [12]); 23.88 (23.0−25.9) h in series [3] (Part B, GSK457 group, Day -1, median (range), n=12); 23.80 (23.8−24.1) h in [3] (Part B, Placebo group, Day 42, median (range), n=5). Also, in series [3] (setting [12]), the “liraglutide Tmax” value is 9.98 (0.8−23.8) h. Besides, the “increase of liraglutide AUC(0−t)” value in [3] (setting [13]) stood at 28%. Besides, the “increase of liraglutide Cmax” value in [3] (setting [13]) worked out at 22%.

Consider `CN(C)C(=N)N=C(N)N` [metformin], for which the figures for the “change in mean body weight during the 4-week metformin Stabilization phase” value in series [4] (setting [10]) and in series [4] (setting [11]) were -1.62 kg and -1.17 kg, respectively. In [5], the “effect on metformin AUC(0−10 h)” value is recorded as “slight decrease”. For the same compound, the “effect on metformin Cmax” value in series [5] is “no apparent effect”. In series [6] (human, in vivo), the “patients with decrease to subnormal serum vitamin B12 levels” value is on record as “approximately 7%”. In addition, the “hypoglycemia in metformin overdose cases” value in series [6] (setting [14]) is recorded as “approximately 10 % of cases”. In [6] (setting [14]), the “lactic acidosis in metformin overdose cases” value was “approximately 32%”. For the same compound, in [7], the “fraction of a dose that appears in the feces” value was 20-30%. For the same compound, in series [8] (Part A healthy subjects, by GSK457), the “reduction of metformin systemic exposure” value is recorded as ~ 30%. Also, in [8] (setting [15]), the “decrease of metformin AUC(0−10 h)” value is 32%. The “decrease of metformin Cmax” value in series [8] (setting [15]) was found to be 34%. Also, the “metformin Cmax” value in [8] (Part A healthy subjects, single 500 mg IR metformin before breakfast, Placebo group, Day 1, plasma, HPLC-MS/MS, n=4) was 682 (19.0) ng/mL; in series [8] (Part A, single 500 mg IR metformin, GSK457 group, Day 1 (metformin alone, GSK457 started at dinner), n=11) it was 576 (24.4) ng/mL; in series [8] (Part A, single 500 mg IR metformin, GSK457 group, Day 42 (taken together with GSK457 after 6 weeks), n=10), 374 (31.2) ng/mL; in series [8] (setting [19]), 860 (18.8) ng/mL. Moreover, the “metformin AUC(0−10)” value is 3403 (26.4) ng.h/mL in series [8] (setting [16]), 2232 (38.6) ng.h/mL in series [8] (setting [17]), 4347 (19.1) ng.h/mL in series [8] (setting [18]) and 5082 (21.1) ng.h/mL in [8] (setting [19]). For the same compound, the “metformin Tmax” value is 2.00 (1.00−4.00) h in series [8] (setting [16]), 2.00 (2.00−5.50) h in series [8] (setting [17]), 3.01 (2.00−4.03) h in series [8] (setting [18]) and 4.00 (2.00−4.03) h in [8] (setting [19]).

For the compound `CCCCCCCC/C=C\CCCCCCCC(=O)O` [oleic acid], the “effect on endocrine hormones” value in series [9] (agents dosed individually) is reported as “little effect”. In addition, the “serum chemistry, effect of single agents” value in series [9] (single GRAS agent in chow) is given as “only a small beneficial effect”. Further, the “serum glucose vs. DIO vehicle” value in [9] (single agent in chow, p < 0.05) is listed as “lowered glucose”.
